According to patent US10633348B2, “Methods to treat lymphoplasmacytic lymphoma” (Dana-Farber Cancer Institute, Inc., priority 2013, dated 2020):

What was measured:
MWCL-1 = assay: CellTiter-Glo cell viability assay; assay type: cell-based; conditions: 72 h
Experimental: (§1) CellTiter-Glo® Luminescent cell viability assay (Promega) was used to assess cell survival following treatment with the compounds described. Cells were seeded into 384 well plates with the EL406 Combination Washer Dispenser (BioTek Instruments, Inc.) and the compounds were injected into the cells culture media with the JANUS Automated Workstation (PerkinElmer Inc.). Cells were treated with a series diluted inhibitors (20˜0.04 μM) for 72 hours at 37° C. Luminescent measurement is performed using the 2104 Envision® Multilabel Reader (PerkinElmer Inc.).

BCWM.1 = assay: CellTiter-Glo cell viability assay; assay type: cell-based
Experimental: as §1

OCI-Ly19 = assay: CellTiter-Glo cell viability assay; assay type: cell-based; conditions: Homo sapiens, OCI-LY19, 72 h
Experimental: as §1

OCI-Ly3 = assay: CellTiter-Glo cell viability assay; assay type: cell-based; conditions: Homo sapiens, OCI-Ly3, 72 h
Experimental: as §1

Ramos = assay: CellTiter-Glo cell viability assay; assay type: cell-based; conditions: Homo sapiens, 72 h
Experimental: as §1

BTK = assay type: biochemical
From the text: (§2) The in vitro activity of the compounds described herein in inhibiting TAK1, HCK and other kinases were obtained using an Invitrogen Select Screening assay as known in the art. The IC50 values determined from this assay are shown below.

[1] = Isobolograms, synergy with a BTK inhibitor; conditions: FIG. 1
From the text: Points below the 1 to 1 line connecting the X and Y axes are ‘synergistic’, points near the line are ‘additive’, and points above it are antagonistic.

TAK1 = assay type: biochemical
HCK = assay type: biochemical; conditions: read-out: HCK IC50 (nM) Inv
From the text: as §2

FYN = assay: KiNativ kinase profiling in A375 cells; assay type: cell-based; conditions: 1 μM; A375 cells
Abl = assay: KiNativ kinase profiling in A375 cells; assay type: cell-based; conditions: 1 μM; A375 cells
LYN = assay type: cell-based
OCI-Ly7 = assay: CellTiter-Glo cell viability assay; assay type: cell-based; conditions: Homo sapiens, 72 hours
Experimental: as §1

TMD8 = assay: CellTiter-Glo cell viability assay; assay type: cell-based; conditions: Homo sapiens, 72 hours
Experimental: as §1

BTK-pY223 = assay: PhosFlow; assay type: cell-based; conditions: BCWM.1, Hck-wt and Hck-mu BCWM.1 cells; 0.5 μM and 0.1 μM
Experimental: PhosFlow was performed to detect levels of phosphorylation for BTK-pY223 (BD Biosciences) and Hck-pY410 (Abcam) in BCWM.1 cells, in BCWM cells that stably overexpress HCK (BCWM.1_HCK-wt) and in BCWM.1 cells that stably overexpress the T338M mutant of HCK (BCWM.1_HCK-mu). Cells were fixed with BD Phosflow Fix Buffer I (BD Biosciences) at 37° C. for 10 min, then washed twice with BD Phosflow Perm/Wash Buffer I (BD Biosciences). Cells were suspended in BD Phosflow Perm/Wash Buffer I at 10 million/ml and antibodies aliquoted to flow tubes with 100 μl cells. Cells were incubated at room temperature for 30 min in the dark. Cells were washed twice with BD Phosflow Perm/Wash Buffer I before performing flow analysis using a BD™ FACSCanto II flow cytometer.

[2] = system: WM patient primary lymphoplasmacytic cells (LPCs); assay: Apoptosis analysis (Annexin V/Propidium iodide); assay type: cell-based; conditions: for Apoptosis (%): 24 hours
Experimental: WM cells were treated with and without the compounds described herein. Cells were incubated at 37° C. with 0.01˜4 uM of the compounds described herein. Apoptosis analysis was performed using Annexin V/Propidium iodide staining with the Apoptosis Detection Kit I (BD Pharmingen). 1×10^6/well cells were treated in 24 well plates for ˜24 hours with inhibitors or corresponding controls. A minimum of 10,000 events were acquired using a BD™ FACSCanto II flow cytometer and analyzed with BD FACS DIVA Software.
Apoptosis analysis of WM patient primary lymphoplasmacytic cells (LPCs) was preformed following A-5 and A-14 treatment of Bone marrow mononuclear cells (BMMC) from WM patients for 24 hours. Apoptosis analysis was performed using Annexin V/Propidium iodide staining with the Apoptosis Detection Kit I (BD Pharmingen) in CD19-APC-cy7 antibody (BD Pharmingen) gated LPCs population.

ZAK = assay type: cell-based
Hck-pY410 = assay: PhosFlow; assay type: cell-based; conditions: BCWM.1, Hck-wt and Hck-mu BCWM.1 cells; 0.5 μM and 0.1 μM

With `C=CC(=O)Nc1cc(Oc2cc(C(=O)Nc3ccc(CN4CCN(CC)CC4)c(C(F)(F)F)c3)ccc2C)ncn1` [(A-17), 3-((6-acrylamidopyrimidin-4-yl)oxy)-N-(4-((4-ethylpiperazin-1-yl)methyl)-3-(trifluoromethyl)phenyl)-4-methylbenzamide] the EC50 (MWCL-1) was 202 nM, the EC50 (BCWM.1; BCWM1, 72 h) was 8 nM and the EC50 (OCI-Ly19) was 188 nM. It also gave an EC50 (OCI-Ly3) of 247 nM, an EC50 (Ramos) of 389 nM and an IC50 (BTK) of 3380 nM. For the same molecule, the “synergy between compound and a BTK inhibitor (isobolograms)” value [1] was “synergy”.

For `CCN1CCN(Cc2ccc(NC(=O)c3ccc(C)c(Oc4cc(Nc5cncnc5)ncn4)c3)cc2C(F)(F)F)CC1` [(A-8), N-(4-((4-ethylpiperazin-1-yl)methyl)-3-(trifluoromethyl)phenyl)-4-methyl-3-((6-(pyrimidin-5-ylamino)pyrimidin-4-yl)oxy)benzamide], the IC50 (TAK1) was 487 nM and the IC50 (HCK) was 889 nM.

In the case of `CCN1CCN(Cc2ccc(NC(=O)c3ccc(C)c(Oc4cc(Nc5cnn(C)c5)ncn4)c3)cc2C(F)(F)F)CC1` [(A-5), N-(4-((4-ethylpiperazin-1-yl)methyl)-3-(trifluoromethyl)phenyl)-4-methyl-3-((6-((1-methyl-1H-pyrazol-4-yl)amino)pyrimidin-4-yl)oxy)benzamide], the FYN inhibition (FYN) is reported as 71.2%, the Abl inhibition (Abl) is reported as > 90% and the LYN inhibition (LYN) is reported as 87.8%. For the same molecule, the EC50 (OCI-Ly7) was 655 nM, the EC50 (BCWM.1; 72 hours) was 72 nM and the EC50 (BCWM.1; BCWM1, 72 h) was 51 nM. The EC50 (OCI-Ly3) was 4710 nM, the EC50 (TMD8) was 132 nM and the “BTK phosphorylation” value (BTK-pY223) was “inhibit”. For the same molecule, the “Apoptosis (%)” value ([2]; Patient 1, 1.0 μM) was 57.7%, the “Apoptosis (%)” value ([2]; Patient 2, 1.0 μM) was 28.9% and the “Apoptosis (%)” value ([2]; Patient 3, 1.0 μM) was 29.48%. The “Apoptosis (%)” value ([2]; Patient 4, 1.0 μM) was 48.56%, the “Apoptosis (%)” value ([2]; Patient 5, 0.5 μM) was 23.25% and the “Apoptosis (%)” value ([2]; Patient 5, 1.0 μM) was 30.5%. The “Apoptosis (%)” value ([2]; Patient 6, 1.0 μM) was 17.82%, the “Apoptosis (%)” value ([2]; Patient 7, 0.5 μM) was 17.23% and the “Apoptosis (%)” value ([2]; Patient 7, 1.0 μM) was 18.2%. For the same molecule, the “Apoptosis (%)” value ([2]; Patient 8, 0.5 μM) was 11.04%, the “Apoptosis (%)” value ([2]; Patient 8, 1.0 μM) was 17.31% and the “Apoptosis (%)” value ([2]; Patient 10, 0.2 μM) was 21.5%. For the same molecule, the “Apoptosis (%)” value ([2]; Patient 10, 1.0 μM) was 28.7%, the “Apoptosis (%)” value ([2]; Patient 11, 0.2 μM) was 30.2% and the “Apoptosis (%)” value ([2]; Patient 11, 1.0 μM) was 47%. The “apoptosis compared with DMSO control” value ([2]; WM patient primary LPCs) was “induced significant apoptosis”, the IC50 (BTK) was > 10000 nM and the ZAK inhibition (ZAK) was 75.7%. The “Hck phosphorylation” value (Hck-pY410) was “inhibit”.
